In patent publication EP3829564B1, “CURCUMIN AND HOMOTAURINE FOR USE IN PREVENTING OR TREATING COGNITIVE DECLINE FORMS” (ALERE VITAM S.R.L., priority 2018, dated 2020):

How the values were obtained:
Aβ42 peptide = target: T1, Aβ42 peptide (Homo sapiens, UniProt P05067); experiment: Thioflavin-T assay for inhibition of Aβ 42 aggregation; assay type: biochemical
T1 construct: Beta-amyloid (Aβ 1-42) aggregation studies were conducted; purchased AnaSpec, Inc, Fremont, CA
Method: In the present study, the fluorescence spectroscopy with thioflavin T was used to examine the effects of curcumin (CUR), homotaurine (HOM) taken individually and a combination of the two compounds as disclosed herein on the formation of toxic Aβ aggregates.
Thioflavin-T (Th-T dosage), analysis for the inhibition of the Aβ 42 aggregation (also referred to AB42).
Beta-amyloid (Aβ 1-42) aggregation studies were conducted using the SensoLyte ThT Ab42 aggregation kit (AnaSpec, Inc, Fremont, CA).
The Aβ42 peptide was dissolved in a cold analysis buffer (4 °C) and allowed to hydrate for a few minutes. The solution was centrifuged at 10,000 rpm for 5 minutes at 4°C to centrifuge any precipitated material. The fibrillation reaction was initiated by adding thioflavin dye (ThT) at a concentration of 2 mmol/L.
Three test samples (CUR; HOM; CUR + HOM) were added in a volume of 5 µL and the reaction was started by adding the Aβ42 peptide solution. The final volume of the test samples was 100 µL. At the same time, the positive control and the negative control containing nordihydroguaiaretic acid (NDGA), a well-defined inhibitor of Ab aggregation, at the final concentration of 100 µmol/L were established. Fluorescence intensity was measured at 37°C with Ex/Em ¼ 440 nm/484 nm and by shaking of 15s between readings using the microplate reader (Synergy H1; BioTek, Winooski, VT). The fluorescence intensity measurements expressed as relative fluorescence units (RFU) were taken for 90 minutes at 5-minute intervals.

Nrf2 = Nrf2 protein expression in nuclear extracts (Western blot); assay type: cell-based, rat; conditions: 25 µM; for expression of the Nrf2 protein in nuclear extracts: cortical neurons, astrocytes and endothelial cells, over time, three independent Western blots
Method: Three different cell lines, cortical neurons, astrocytes and endothelial cells, were exposed to curcumin, homotaurine or a combination of the two compounds at the final concentration of 25 µM to evaluate the expression of the Nrf2 protein over time.
The rat hippocampal neurons (H 19-7) were purchased by the American Type Culture Collection (Manassas, VA, USA) and cultured according to the manufacturer's instructions.
The neurons were washed twice with 1X PBS. The cells were then collected in 1 ml of 1X PBS and centrifuged at 3000 rpm for 3 min at 4°C. The cell pellet was carefully resuspended in […] of cold buffer containing HEPES 10 mM (pH 7.9), KCI 10 mM, EDTA 0.1 mM, EGTA 0.1 mM, DTT 1 µM and complete protease inhibitor cocktail (Roche, Mannheim, Germany).
The pellet was then incubated on ice for 15 minutes to allow the cells to swell. After this time, 15 µl of 10% of NP-40 were added and the tube was vortexed for 10 s. The homogenate was then centrifuged at 3000 rpm for 3 min at 4°C and the nuclear pellet was resuspended in 30 µl of cold buffer consisting of HEPES 20 mM (pH 7.9), NaCl 0,4 M, EDTA 1 mM, EGTA 1 mM, DTT 1 µM and protease inhibitors. The pellet was then incubated on ice for 15 minutes and vortexed for 10-15 s every 2 minutes. The nuclear extract was finally centrifuged at 13,000 rpm for 5 minutes at 4°C. The supernatant containing the nuclear proteins was resolved with SDS-polyacrylamide gel and subjected to immunoblot analysis using anti-Nrf2 antibodies (dilution 1: 500) and anti-Sp1 (dilution 1: 500).

heme oxygenase = experiment: Heme oxygenase activity in treated cells; assay type: cell-based; conditions: same doses; 6 and 24 hours after administration
Method: (§1) To confirm that the expression of the HO-1 gene measured at the mRNA level corresponded to an equivalent increase in heme oxygenase activity, this activity was measured at the same doses of curcumin and homotaurine 6 and 24 hours after administration.

HO-1 [1] = conditions: 6 hours; for increase in HO-1 mRNA: 5, 10, 15 and 30 µM, cortical neurons, astrocytes and endothelial cells; for concentration of maximum HO-1 mRNA: tested 5, 10, 15 and 30 µM
Method: as §1

HO-1 [2] = experiment: cells; conditions: 6 h, read-out: maximum increase in HO-1 mRNA, relative to the non-inducible paralogue HO-2 gene
Method: as §1

Aβ42 oligomer = target: T2, Aβ42 oligomer (Homo sapiens, UniProt P05067); conditions: prior art statement; cited from earlier work
T2 construct: prevents the formation and the toxicity of Aβ42 oligomer

Aβ40 = Aβ40 (Homo sapiens, UniProt P05067); conditions: compared with ibuprofen and naproxen; cited from earlier work
[3] = tested on: transgenic Alzheimer's mouse (Tg2576); conditions: dietary regime containing curcumin for 6 months; cited from earlier work
[4] = fibrillation time 30 min and 90 min, vs control

T1 sequence (P05067 672-713 limits assumed): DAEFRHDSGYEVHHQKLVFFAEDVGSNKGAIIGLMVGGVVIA
Aβ40, sequence (P05067 672-711): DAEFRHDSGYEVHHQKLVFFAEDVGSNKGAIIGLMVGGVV
T2 sequence (P05067 672-713): as the sequence (P05067 672-713 limits assumed) above

Row | Compound | Aβ aggregation (ThT fluorescence) (Aβ42 peptide; 100 µmol/L, control inhibitor) | time Nrf2 expression remained upregulated (Nrf2; after treatment) | expression of the Nrf2 protein in nuclear extracts (Nrf2) | heme oxygenase activity (heme oxygenase) | Aβ aggregation (ThT fluorescence) (Aβ42 peptide; [4]) | increase in HO-1 mRNA (HO-1 [1]) | concentration of maximum HO-1 mRNA (HO-1 [1]) [µM] | maximal fold induction at 15 µM (HO-1 [2]) | concentration preventing formation and toxicity of Aβ42 oligomer (Aβ42 oligomer) [µM] | Aβ40 aggregation inhibition (Aβ40) | cognitive deficits induced by Aβ amyloid [3] | indices of oxidative damage and inflammation in the brain [3]
1 | CC(Cc1ccc(O)c(O)c1)C(C)Cc1ccc(O)c(O)c1 (centres unmarked) [NDGA, nordihydroguaiaretic acid] | inhibitor of the Aβ aggregation (p <.001) | – | – | – | – | – | – | – | – | – | – | –
2 | COc1cc(C=CC(=O)CC(=O)C=Cc2ccc(O)c(OC)c2)ccc1O [curcumin, 1,7-bis [4-Hydroxy-3-methoxyphenyl]-1,6-heptadiene-3,5-dione] | – | up to 12 hours | significant timedependent increase | comparable to the results obtained by looking at cellular mRNAs | significantly influence the fibrillation reaction | dosedependent increase in HO-1 mRNA | 15 | ~6 | 0.1 to 11.0 | better than ibuprofen and naproxen | reverses the cognitive deficits induced by Aβ amyloid | suppression of the indices of the oxidative damage and the inflammation in the brain
3 | NCCCS(=O)(=O)O [homotaurine, 3-amino-1-propanesulfonic acid] | – | – | lower increase in nuclear Nrf2 | comparable to the results obtained by looking at cellular mRNAs | significantly influence the fibrillation reaction | much less active in inducing the expression of the HO-1 gene | 15 | – | – | – | – | –
